Assay results as given in patent US10301353B2, “Co-crystal of carfilzomib with maleic acid and process for the preparation of pure carfilzomib” (DR. REDDY'S LABORATORIES LIMITED, priority 2014, dated 2019).

Legend:
[1] = storage stability of amorphous carfilzomib; type: physicochemical; conditions: at 2-8° C.
Procedure: Carfilzomib amorphous form obtained according to the process of the present application is stable at 2-8° C. for extended periods, i.e., more than 3 month.

[2] = test system: solid and hematologic tumor cells; conditions: cited from earlier work
proteasome = conditions: in animals; cited from earlier work
[3] = test system: models of multiple myeloma, hematologic, and solid tumors; conditions: in animals; cited from earlier work

| SMILES | stable for extended periods [1] | activity in vitro in tumor cells [2] | proteasome activity in blood and tissue (proteasome) | tumor growth [3] |
| --- | --- | --- | --- | --- |
| CC(C)C[C@H](NC(=O)[C@H](CCc1ccccc1)NC(=O)CN1CCOCC1)C(=O)N[C@@H](Cc1ccccc1)C(=O)N[C@@H](CC(C)C)C(=O)[C@@]1(C)CO1 [Carfilzomib amorphous form] | more than 3 month |  |  |  |
| CC(C)C[C@H](NC(=O)[C@H](CCc1ccccc1)NC(=O)CN1CCOCC1)C(=O)N[C@@H](Cc1ccccc1)C(=O)N[C@@H](CC(C)C)C(=O)[C@@]1(C)CO1 [Carfilzomib, (2S)—N—((S)-1-((S)-4-methyl-1-((R)-2-methyloxiran-2-yl)-1-oxopentan-2-ylcarbamoyl)-2-phenylethyl)-2-((S)-2-(2-morpholinoacetamido)-4-phenylbutanamido)-4-methylpentanamide] |  | antiproliferative and proapoptotic activities | inhibited proteasome activity | delayed tumor growth |
